{"source": "paper PMC5800971", "about": "(European journal of medicinal chemistry, 2017)", "key": {"[1]": {"system": "breast cancer cell line MDA-MB-231", "assay": "Alamar Blue cytotoxicity assay", "type": "cell-based", "conditions": "for fold less potent than ipomoeassin F: MDA-MB-231"}, "[2]": {"system": "MCF7 breast cancer cell line", "assay": "Colorimetric MTT cytotoxicity assay", "type": "cell-based"}, "[3]": {"system": "human breast epithelial cell line MCF-10A", "assay": "Alamar Blue cytotoxicity assay", "type": "cell-based", "conditions": "MCF-10A vs MDA-MB-231 / MCF7"}, "[4]": {"system": "A2780 human ovarian cancer cell line", "assay": "Cytotoxicity of ipomoeassins A-F", "type": "cell-based", "conditions": "from Table 1 values"}, "[5]": {"system": "A2780 human ovarian cancer cell line", "conditions": "read-out: IC50 (nM) A2780; A2780 human ovarian cancer cells; cited from earlier work"}}}
{"compound": "C/C=C(\\C)C(=O)O[C@@H]1[C@@H](O)[C@@H]2O[C@H]3[C@H](O[C@@H](CCCCC)CCCCCOC(=O)CCC(=O)OC[C@@H](O2)[C@H]1OC(=O)/C=C/c1ccccc1)O[C@H](C)[C@H](OC(C)=O)[C@@H]3O", "note": "[Analogue 1]", "values": [{"measurement": "fold less potent than ipomoeassin F", "setting": "[1]", "value": "about 4 fold"}, {"measurement": "fold less potent than ipomoeassin F", "setting": "[2]", "value": "~2", "unit": "fold"}]}
{"compound": "C/C=C(\\C)C(=O)O[C@@H]1[C@@H](O)[C@@H]2O[C@H]3[C@H](O[C@@H](CCCCC)CCCCCNC(=O)CCC(=O)OC[C@@H](O2)[C@H]1OC(=O)/C=C/c1ccccc1)O[C@H](C)[C@H](OC(C)=O)[C@@H]3O", "note": "[Analogue 2]", "values": [{"measurement": "selectivity between tumor and non-tumor cells", "setting": "[3]", "value": "slight selectivity towards MDA-MB-231 cells"}]}
{"compound": "C/C=C(\\C)C(=O)O[C@@H]1[C@@H](O)[C@@H]2O[C@H]3[C@H](O[C@@H](CCCCC)CCCCCN(C)C(=O)CCC(=O)OC[C@@H](O2)[C@H]1OC(=O)/C=C/c1ccccc1)O[C@H](C)[C@H](OC(C)=O)[C@@H]3O", "note": "[Analogue 21]", "values": [{"measurement": "fold less potent than ipomoeassin F", "setting": "[1]", "value": "≤ 2", "unit": "fold"}, {"measurement": "fold less potent than ipomoeassin F", "setting": "[2]", "value": "≤ 2", "unit": "fold"}]}
{"compound": "C/C=C(\\C)C(=O)O[C@@H]1[C@@H](O)[C@@H]2O[C@H]3[C@H](O[C@@H](CCCCC)C/C=C\\CCOC(=O)CCC(=O)OC[C@@H](O2)[C@H]1OC(=O)/C=C/c1ccccc1)O[C@H](C)[C@H](OC(C)=O)[C@@H]3O", "note": "[Analogue 24]", "values": [{"measurement": "fold more potent than the E-counterpart 23", "setting": "[1]; breast cancer cell lines of Table 2 (MDA-MB-231, MCF7)", "value": "~ 3 fold"}]}
{"compound": "C/C=C(\\C)C(=O)O[C@@H]1[C@@H](O)[C@@H]2O[C@H]3[C@H](O[C@@H](CCCCC)CCCCOC(=O)CCC(=O)OC[C@@H](O2)[C@H]1OC(=O)/C=C/c1ccccc1)O[C@H](C)[C@H](OC(C)=O)[C@@H]3O", "note": "[Analogue 25]", "values": [{"measurement": "fold activity loss compared to 1", "setting": "[1]; MDA-MB-231 (printed MBA-BD-231)", "value": 9, "unit": "fold"}, {"measurement": "fold activity loss compared to 1", "setting": "[2]", "value": 9, "unit": "fold"}]}
{"compound": "C/C=C(\\C)C(=O)O[C@@H]1[C@@H](O)[C@@H]2O[C@H]3[C@H](O[C@@H](CCC)CCCCC[C@H](O)C(=O)CCC(=O)OC[C@@H](O2)[C@H]1OC(=O)/C=C/c1ccccc1)O[C@H](C)[C@H](OC(C)=O)[C@@H]3O", "note": "[Ipomoeassin C]", "values": [{"measurement": "fold activity difference between ipomoeassin C and ipomoeassin A/D", "setting": "[4]", "value": "up to 80 fold"}]}
{"compound": "C/C=C(\\C)C(=O)O[C@@H]1[C@@H](O)[C@@H]2O[C@H]3[C@H](O[C@@H](CCC)CCCCC[C@H](OC(C)=O)C(=O)CCC(=O)OC[C@@H](O2)[C@H]1OC(=O)/C=C/c1ccccc1)O[C@H](C)[C@H](OC(C)=O)[C@@H]3O", "note": "[Ipomoeassin D]", "values": [{"measurement": "fold potency enhancement, R1 H to OAc (A vs. D)", "setting": "[4]; A2780", "value": "up to 14 fold"}]}
{"compound": "C/C=C(\\C)C(=O)O[C@@H]1[C@@H](O)[C@@H]2O[C@H]3[C@H](O[C@@H](CCC)CCCCC[C@H](OC(C)=O)C(=O)CCC(=O)OC[C@@H](O2)[C@H]1OC(=O)/C=C/c1ccccc1)O[C@H](C)[C@H](O)[C@@H]3O", "note": "[Ipomoeassin E]", "values": [{"measurement": "IC50", "setting": "[5]", "value": 3300, "unit": "nM"}, {"measurement": "fold activity loss, R1 H to OAc (B vs. E)", "setting": "[4]; A2780", "value": 8, "unit": "fold"}]}
